In paper PMC7876453, “Targeting Indoleamine 2,3-Dioxygenase in Cancer Models Using the Novel Small Molecule Inhibitor NTRC 3883-0” (Frontiers in Immunology, 2021):
Like-named read-outs stand apart in the source and are kept apart here.

How the values were obtained:
human IDO1 = target: T1, human IDO1 (Homo sapiens, UniProt P14902); assay: human IDO1 biochemical assay (NFK GreenScreen); conditions: human IDO1 biochemical assay
T1 construct: Full-length recombinant human and mouse IDO1 were expressed in Escherichia coli with a hexahistidine tag at the N-terminus; hexahistidine (N); made in house; host or cells: Escherichia coli
T1 sequence (P14902 whole entry): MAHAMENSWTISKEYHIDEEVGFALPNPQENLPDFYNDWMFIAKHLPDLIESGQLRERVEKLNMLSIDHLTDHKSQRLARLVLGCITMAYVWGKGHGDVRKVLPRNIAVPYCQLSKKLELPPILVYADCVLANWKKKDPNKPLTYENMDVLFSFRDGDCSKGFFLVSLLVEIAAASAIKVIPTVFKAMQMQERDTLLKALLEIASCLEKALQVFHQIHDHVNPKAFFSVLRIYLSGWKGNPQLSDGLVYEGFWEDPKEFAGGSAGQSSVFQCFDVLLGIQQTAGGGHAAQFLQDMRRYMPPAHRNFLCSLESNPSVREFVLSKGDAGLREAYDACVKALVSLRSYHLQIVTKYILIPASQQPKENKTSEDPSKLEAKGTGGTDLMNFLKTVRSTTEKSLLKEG

mTDO = target: T2, mTDO (Mus musculus, UniProt P48776); assay: mouse TDO biochemical assay (NFK GreenScreen); conditions: biochemical; @ 31,600 nM
T2 construct: hexahistidine (C); made in house; host or cells: Escherichia coli
T2 sequence (P48776 whole entry): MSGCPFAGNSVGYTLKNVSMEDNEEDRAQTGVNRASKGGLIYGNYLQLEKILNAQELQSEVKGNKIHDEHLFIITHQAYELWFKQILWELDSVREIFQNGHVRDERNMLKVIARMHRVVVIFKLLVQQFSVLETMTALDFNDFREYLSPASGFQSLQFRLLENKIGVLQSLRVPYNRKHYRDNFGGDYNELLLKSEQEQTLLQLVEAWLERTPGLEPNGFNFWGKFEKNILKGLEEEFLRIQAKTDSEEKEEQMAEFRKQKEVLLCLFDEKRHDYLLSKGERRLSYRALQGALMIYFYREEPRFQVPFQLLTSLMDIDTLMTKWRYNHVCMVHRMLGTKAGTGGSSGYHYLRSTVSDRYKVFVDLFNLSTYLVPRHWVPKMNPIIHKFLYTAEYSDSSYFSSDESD
Experimental: (§1) Full-length recombinant human and mouse IDO1 were expressed in Escherichia coli with a hexahistidine tag at the N-terminus, and purified by affinity chromatography to > 95% purity, as described ([8]). Human and mouse TDO containing a C-terminal hexahistidine tag were analogously expressed and purified to > 95% purity ([8]). The inhibitory activity of compounds was determined with the NFK GreenScreen assay technology under the conditions as described ([8]), except for the reaction buffer for IDO1, which was replaced by 50 mM NaH2PO4, pH 7.0, supplemented with 0.01% Tween-20 and 1% glycerol. Inhibition of the CYP3A4 and CYP2D6 enzymes was determined with the P450-Glo™ Screening System with Luciferin-IPA (Promega, #V9920 and V9890). For determination of IC50 values, the effect of inhibitors was determined in 10-point duplicate dose-response curves. Graphs were fitted to a four-parameter logistics equation in XLfit (ID Business Solutions, Ltd., Guildford, UK) from which IC50 values were calculated.

A375 + IFNγ (hIDO1) = target: T3, A375 + IFNγ (hIDO1) (Homo sapiens, UniProt P14902); assay: cell-based assay, Trp-catabolizing activity in IFNγ-stimulated A375 cells; conditions: IFNγ-stimulated A375 human melanoma cells
T3 construct: host or cells: A375 cells stimulated with IFNγ
T3 sequence (P14902 whole entry): as the sequence (P14902 whole entry) above

CYP3A4 = target: T4, CYP3A4 (Homo sapiens, UniProt P08684); assay: CYP3A4 inhibition (P450-Glo); format: in vitro ADME; conditions: 10 µM
T4 construct: purchased Promega V9920
T4 sequence (P08684 whole entry): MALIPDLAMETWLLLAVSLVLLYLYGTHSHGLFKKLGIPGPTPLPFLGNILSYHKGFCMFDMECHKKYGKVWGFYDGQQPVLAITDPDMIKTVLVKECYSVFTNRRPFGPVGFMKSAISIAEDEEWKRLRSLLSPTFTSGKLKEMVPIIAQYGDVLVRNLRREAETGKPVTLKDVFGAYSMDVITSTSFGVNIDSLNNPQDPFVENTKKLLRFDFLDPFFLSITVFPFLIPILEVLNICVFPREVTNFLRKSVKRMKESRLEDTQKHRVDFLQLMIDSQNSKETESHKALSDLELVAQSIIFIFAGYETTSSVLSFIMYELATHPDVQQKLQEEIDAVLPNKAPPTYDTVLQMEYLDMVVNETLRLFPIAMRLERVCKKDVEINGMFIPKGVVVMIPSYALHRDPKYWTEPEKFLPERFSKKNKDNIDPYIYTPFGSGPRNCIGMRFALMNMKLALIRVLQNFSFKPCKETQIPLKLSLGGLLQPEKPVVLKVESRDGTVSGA
Experimental: as §1

[1] = tested on: panel of 44 pharmacologically relevant receptors, ion channels, transporters and enzymes; assay: Eurofins-CEREP selectivity panel; conditions: 10 µM
[2] = tested on: cell lines used in this study; assay: cell viability assays (ATPlite 1Step); conditions: in parallel with the cell-based assays
[3] = tested on: CD8-positive T cells co-cultured with HEK-hIDO1 cells; assay: co-culture assay of HEK-hIDO1 cells with PBMCs, CFSE proliferation; format: cell-based, human; conditions: 7.5 µM Trp; 10 µM NTRC 3883-0, 1 µM epacadostat; 5 days
[4] = tested on: CT26 cells implanted subcutaneously into female BALB/c mice; assay: CT26 mouse model, second study (Charles River); format: in vivo
Experimental: For the second study, performed at Charles River Laboratories, 3 × 10^5 CT26 cells were implanted subcutaneously into female BALB/c mice on day 0. […] Tumor growth was monitored using caliper measurement 3 times weekly. A tumor volume of 2000 mm^3 was used as the endpoint of the experiment for the individual animals. Tumors were sampled 2 h post last dose.
Tissues were homogenized in PBS at a ratio of 1 mg per 10 μl using micro pellet pestles mounted on a Micro-Tube Homogenizer System (Thomas Scientific). After centrifugation, proteins were removed from the homogenized tissue supernatants and plasma samples by precipitation with methanol. The concentrations of inhibitor, Trp and Kyn were determined by LC-MS/MS.

[5] = in vivo pharmacokinetics, mouse; set-up: species or system male CD-1 mice; conditions: male; for clearance / Vd: intravenous; for Vd: read-out: Vss
Experimental: (§2) Pharmacokinetic properties of NTRC 3883-0 were determined in plasma following single oral (p.o.) and i.v. administration to male CD-1 mice (n = 6 per treatment group with three mice sampled per time point), Wistar rats (n = 3), cynomolgus monkey (n = 1) and Beagle dogs (n = 3). Formulations were prepared in DMSO, Kolliphor® EL, 5% D-mannitol in Elix water at a volume ratio of 1:1:8 for i.v. administration, and in 0.5% gelatin, 5% D-mannitol in Elix water for p.o. administration. Plasma samples were collected at eight to eleven time points up to 24 h after administration. Pharmacokinetic properties and required dosing in humans were predicted by allometric scaling by Karin Jorga Life Science Consulting (Basel, Switzerland) ( Figure S2 and Table S2 ).

[6] = in vivo pharmacokinetics, rat; set-up: species or system Wistar rats; conditions: Wistar, plasma; for clearance / Vd: intravenous; for Vd: read-out: Vss
Experimental: as §2

[7] = tested on: unstimulated adherent cell samples isolated from ascites of ovarian cancer patients; assay: Trp-catabolizing activity in unstimulated ascites cell samples; format: cell-based, human; conditions: for IC50: Homo sapiens
Experimental: (§3) Ascites was collected from patients with a primary diagnosis of advanced epithelial ovarian cancer during paracentesis for diagnostics or symptom relieve, or during primary debulking surgery. Ascites was filtered and cells were collected by centrifugation as described ([23]). To enrich for tumor cells, ascites cell samples were allowed to adhere overnight to tissue culture plastic. The cell samples were then cultured for 2–3 weeks in advanced RPMI medium (ThermoFisher), supplemented with 10% FBS, 1% glutamax and 1% P/S, with 2 or 3 times passaging of the cells. qPCR analyses of the MUC16, HE4, IDO1, and TDO2 genes were performed for all samples as described above. Five samples which could be cultured over multiple passages were analyzed for cell surface expression of mucin-16 and EpCAM by flow cytometry using FITC-conjugated anti-mucin-16 (AssayPro, #32189-05141) and APC-conjugated anti-EpCAM (Miltenyi, #130-111-117, RRID: AB_2657496) to assure that the cell cultures consisted of malignant cells. IDO1 mRNA and protein levels in these samples were analyzed as described above after incubation with or without 200 ng/ml IFNγ for 24 h. The collection of ascites and the research described was conducted with approval of the medical ethical committee of the Radboud university medical center and informed written consent from each subject.

[8] = tested on: IFNγ-stimulated adherent cell samples isolated from ascites of ovarian cancer patients; assay: Trp-catabolizing activity in IFNγ-stimulated ascites cell samples; format: cell-based; conditions: Homo sapiens
Experimental: as §3

GL-261-mTDO = GL-261-mTDO (Mus musculus, UniProt P48776); assay: cell-based assay, Trp-catabolizing activity in GL-261-mTDO cells; conditions: read-out: inhibition GL-261-mTDO
Sequence of GL-261-mTDO (P48776 whole entry): as the sequence (P48776 whole entry) above

[9] = CD-1, plasma, mouse, body weight 0.036 kg

In the case of `O=C1CN(C(=O)c2c(F)cccc2F)[C@H](c2cccc(Br)c2)N1O` [NTRC 3883-0], the IC50 (human IDO1) is reported as 123 nM, the inhibition at 31.6 µM (mTDO) is reported as < 20% and the IC50 (A375 + IFNγ (hIDO1)) is reported as 182 nM. The “inhibition of CYP3A4 activity” value (CYP3A4) was “did not inhibit”, the “cross-reactivities in panel of 44 targets” value [1] was “no cross-reactivities” and the cytotoxicity [2] was “not cytotoxic”. For the same compound, the “effect on IDO1-mediated inhibition of T cell proliferation (in words)” value [3] was “relieved the inhibitory effect”, the tumor growth ([4]; 100 mg/kg p.o. b.i.d. from day 8) was “no inhibition of tumor growth” and the “Kyn levels in the tumor” value ([4]; LC-MS/MS, 2 h post last dose, 100 mg/kg p.o. b.i.d.) was “considerable reduction of Kyn levels”. For the same compound, the half-life ([5]; CD-1, mouse, plasma) was 5.2 h, the clearance ([5]; CD-1, mouse, plasma) was 18.5 mL/min/kg and the Vd ([5]; CD-1, mouse, plasma) was 3.63 L/kg. For the same compound, the clearance [5, 9] was 0.667 mL/min, the Vd [5, 9] was 0.131 L and the half-life [6] was 3.3 h. The clearance [6] was 19.1 mL/min/kg, the clearance ([6]; body weight 0.29 kg) was 5.52 mL/min and the Vd ([6]; body weight 0.29 kg) was 0.417 L. The Vd [6] was 1.43 L/kg, the bioavailability ([6]; po, p.o. versus i.v., read-out: Bioavailability (F)) was 91% and the “inhibition of basal Trp-catabolizing activity (in words)” value [7] was “no or only minimal inhibition”. The IC50 ([7]; mean of samples, read-out: IC50 Mean) was > 31600 nM, the IC50 ([7]; read-out: IC50 ASC 010) was > 31600 nM and the IC50 ([7]; read-out: IC50 ASC 013) was > 31600 nM. The IC50 ([7]; read-out: IC50 ASC 031) was > 31600 nM, the IC50 ([7]; read-out: IC50 ASC 041) was > 31600 nM and the IC50 ([8]; IFNγ-stimulated samples, read-out: IC50) was 261 nM. The IC50 ([8]; IFNγ-stimulated, read-out: IC50 ASC 009) was 236 nM, the IC50 ([8]; IFNγ-stimulated, read-out: IC50 ASC 010) was 294 nM and the IC50 ([8]; IFNγ-stimulated, read-out: IC50 ASC 013) was 237 nM. The IC50 ([8]; IFNγ-stimulated, read-out: IC50 ASC 031) was 271 nM, the IC50 ([8]; IFNγ-stimulated, read-out: IC50 ASC 041) was 321 nM and the inhibition at 31.6 µM (GL-261-mTDO) was < 20%.
